# Experimental data taken from patent US6803366B2, “Agent for improving learning or memory” (Toray Industries, Inc., priority 1999, dated 2004).
# “Also recorded” adds a separate entry of the source.
# Key:
# [1] = tested on: patients suffering from dementia; conditions: cited from earlier work
# [2] = tested on: ICR male mice; experiment: Evaluation of activity to improve learning and/or memory using Morris water maze; assay type: in vivo
# Method: Evaluation of Activity to Improve Learning and/or Memory Using Morris Water Maze
# In experiments, ICR male mice of 6 weeks old were used. Using Morris water maze as an experiment apparatus, ability of learning and memory of space was evaluated based on the latency until a mouse escapes to a platform arranged in a pool as an index. One trial was maximally 120 seconds, and 1 session was composed of three trials in which each mouse was made to swim in the pool from three different positions. Average time needed for the escape was calculated and evaluation was made based thereon. On the first day (the first session), no drug and nothing were administered. From the second session (Day 2), Compound 1, Compound 8 or a solvent was administered. Trial was repeated for 5 days (5 sessions).
# The dose of Compound 1 was 10, 30 or 100 μg/kg, and the dose of Compound 8 was 100 μg/kg. Compound 1, Compound 8 or saline which was the solvent was subcutaneously administered 30 minutes before the first trial of each session. The data was subjected to analysis of variance and significance was evaluated according to Fisher's PLSD test. The cases where P<0.05 was evaluated as significant.
# [3] = tested on: ICR male mice; experiment: Test of learning of Step-Down type passive avoidance (MK-801-induced learning disability and memory disorder); assay type: in vivo; conditions: test 24 hours after training, FIG. 2
# Method: In experiments, ICR male mice of 6 weeks old were used. The experiment apparatus comprised a plastic box sizing 25×25×30 cm (width×depth×height), a stainless steel grid for giving electrical shock, which was laid on the floor of the box, and a wooden platform sizing 4.5×4.5×3.0 cm (width×depth×height) placed on a corner on the floor grid.
# Sixty minutes before the training trial, 100 or 300 μg/kg of Compound 1, or its solvent, saline, was subcutaneously administered. Thirty minutes later, 0.1 mg/kg of MK-801 which is a non-competitive antagonist of NMDA receptor, which is a compound that causes learning disability and/or memory disorder was intraperitoneally administered. Training trial was carried out by placing a mouse on the platform, and the time period until the mouse stepped down to the floor grid, that is, the Step-Down latency, was measured. Simultaneously with the attaching all of the feet of the mouse to the floor, an electrical shock of 0.6 mA was given for 2 seconds, thereby making the mouse to learn that an electrical shock would be given if the mouse would stepped down to the floor.
# Test trials were carried out 24 hours after the training trials. Each mouse was again placed on the platform, and the Step-Down latency was measured for maximally 300 seconds.
structure (smiles),measurement,setting,value
COc1cc2c(cc1OC)C(=O)C(CC1CCN(Cc3ccccc3)CC1)C2 (stereo not shown) [Aricept],improvement in patients suffering from dementia,[1]; dementia in light to medium degree,improvement is observed in about half cases
"CN1CC[C@@]2(c3cccc(O)c3)Cc3nc4ccccc4cc3C[C@H]2C1 [Compound 1, (4aR, 12aR)-2-methyl-4a-(3-hydroxyphenyl)-1,2,3,4,4a,5,12,12a-octahydro-quinoline[2,3-g]isoquinoline]",time period (latency) required for escaping to the platform; ability of learning and memory of space,"[2]; Compound 1 10, 30 or 100 μg/kg subcutaneously 30 minutes before first trial of each session, sessions 2-5, vs saline, FIG. 1",shortened dose-dependently from the second session; also recorded: ability of learning and memory of space was improved
same,Step-Down latency in test trials: reversal of the shortening by MK-801,"[3]; Compound 1 100 or 300 μg/kg s.c. 60 min before training, MK-801 0.1 mg/kg i.p. 30 min later, vs MK-801 alone",significantly reduced; also recorded: recovered
"CN1CC[C@@]2(c3cccc(O)c3)Cc3nc4c(Br)cc(Br)cc4cc3C[C@@H]2C1 [Compound 8, (+)-7,9-dibromo-4a-(3-hydroxyphenyl)-2-methyl-1,2,3,4,4a,5,12,12a-octahydro-quinoline[2,3 g]isoquinoline]",latency required for escaping to the platform; ability of learning and memory of space,"[2]; Compound 8 100 μg/kg subcutaneously 30 minutes before first trial of each session, vs saline, FIG. 3",shortened
C[C@]12N[C@H](Cc3ccccc31)c1ccccc12 [MK-801],Step-Down latency in test trials (passive avoidance reaction),"[3]; MK-801 alone 0.1 mg/kg i.p., vs control group (solvent alone)",significantly shorter than that of the control group; also recorded: significantly suppressed
Nc1c2c(nc3ccccc13)CCCC2 [tacrine],side effects,[1]; clinical use,hepatic toxicity and choline-related side effects
same,improvement of intellectual function in cases in which the drug is administered,[1]; dementia patients,improvement of intellectual function to a certain degree is observed in about half of the cases
